Reference: ChEMBL document CHEMBL3044646, “Management of tomato leaf mould caused by Cladosporium fulvum with trifloxystrobin” (2007)

Assays:
Assay type in all cases: functional
Fulvia fulva [1] = assay: Antifungal activity against Passalora fulva infected tomato cultivar Alma F1 plants grown in growth chamber assessed as inhibition of sporulation at 100 ug a.i./ml applied at 15 days post-inoculation after appearance of symptoms followed by incubation in growth chamber for 72 hr relative to control; parameters: scale not given: the % may be the effect or the level left
Fulvia fulva [2] = assay: Antifungal activity against Passalora fulva infected tomato cultivar Alma F1 plants grown in growth chamber assessed as reduction in lesions on leaf at 100 ug a.i./ml sprayed 24 hr prior to inoculation measured after 22 days relative to control; parameters: scale not given: the % may be the effect or the level left
Fulvia fulva [3] = assay: Antifungal activity against Passalora fulva infected tomato cultivar Alma F1 plants grown in growth chamber assessed as reduction in lesions on leaf at 100 ug a.i./ml sprayed 48 hr prior to inoculation measured after 22 days relative to control; parameters: scale not given: the % may be the effect or the level left
Fulvia fulva [4] = assay: Antifungal activity against Passalora fulva infected tomato cultivar Alma F1 plants grown in growth chamber assessed as reduction in lesions on leaf at 100 ug a.i./ml sprayed 96 hr prior to inoculation measured after 22 days relative to control; parameters: scale not given: the % may be the effect or the level left
Fulvia fulva [5] = assay: Antifungal activity against Passalora fulva infected tomato cultivar Alma F1 plants grown in growth chamber assessed as reduction in lesions on leaf at 100 ug a.i./ml sprayed 96 hr post-inoculation measured after 22 days relative to control; parameters: scale not given: the % may be the effect or the level left
Fulvia fulva [6] = assay: Antifungal activity against Passalora fulva infected tomato cultivar Alma F1 plants grown in growth chamber assessed as reduction in lesions on leaf at 100 ug a.i./ml sprayed 48 hr post-inoculation measured after 22 days relative to control; parameters: scale not given: the % may be the effect or the level left
Fulvia fulva [7] = assay: Antifungal activity against Passalora fulva infected tomato cultivar Alma F1 plants grown in growth chamber assessed as reduction in lesions on leaf at 100 ug a.i./ml sprayed 24 hr post-inoculation measured after 22 days relative to control; parameters: scale not given: the % may be the effect or the level left
Fulvia fulva [8] = assay: Antifungal activity against Passalora fulva infected tomato cultivar Alma F1 plants grown in growth chamber assessed as reduction in lesions on leaf at 20 ug a.i./ml sprayed 48 hr post-inoculation measured after 22 days relative to control; parameters: scale not given: the % may be the effect or the level left
Fulvia fulva [9] = assay: Antifungal activity against Passalora fulva infected tomato cultivar Alma F1 plants grown in growth chamber assessed as reduction in lesions on leaf at 20 ug a.i./ml sprayed 24 hr post-inoculation measured after 22 days relative to control; parameters: scale not given: the % may be the effect or the level left
Fulvia fulva [10] = assay: Antifungal activity against Passalora fulva infected tomato cultivar Alma F1 plants grown in growth chamber assessed as inhibition of sporulation at 20 ug a.i./ml applied at 15 days post-inoculation after appearance of symptoms followed by incubation in growth chamber for 72 hr relative to control
Fulvia fulva [11] = assay: Antifungal activity against Passalora fulva infected tomato cultivar Alma F1 plants grown in growth chamber assessed as inhibition of sporulation at 10 ug a.i./ml applied at 15 days post-inoculation after appearance of symptoms followed by incubation in growth chamber for 72 hr relative to control
Fulvia fulva [12] = assay: Antifungal activity against Passalora fulva infected tomato cultivar Alma F1 plants grown in growth chamber assessed as inhibition of sporulation at 5 ug a.i./ml applied at 15 days post-inoculation after appearance of symptoms followed by incubation in growth chamber for 72 hr relative to control
Fulvia fulva [13] = assay: Antifungal activity against Passalora fulva infected tomato cultivar Alma F1 plants grown in growth chamber assessed as reduction in lesions on leaf at 10 ug a.i./ml sprayed 96 hr post-inoculation measured after 22 days relative to control; parameters: scale not given: the % may be the effect or the level left
Fulvia fulva [14] = assay: Antifungal activity against Passalora fulva infected tomato cultivar Alma F1 plants grown in growth chamber assessed as reduction in lesions on leaf at 10 ug a.i./ml sprayed 48 hr post-inoculation measured after 22 days relative to control; parameters: scale not given: the % may be the effect or the level left
Fulvia fulva [15] = assay: Antifungal activity against Passalora fulva infected tomato cultivar Alma F1 plants grown in growth chamber assessed as reduction in lesions on leaf at 10 ug a.i./ml sprayed 24 hr post-inoculation measured after 22 days relative to control; parameters: scale not given: the % may be the effect or the level left
Fulvia fulva [16] = assay: Antifungal activity against Passalora fulva infected tomato cultivar Alma F1 plants grown in growth chamber assessed as reduction in lesions on leaf at 5 ug a.i./ml sprayed 96 hr post-inoculation measured after 22 days relative to control; parameters: scale not given: the % may be the effect or the level left
Fulvia fulva [17] = assay: Antifungal activity against Passalora fulva infected tomato cultivar Alma F1 plants grown in growth chamber assessed as reduction in lesions on leaf at 5 ug a.i./ml sprayed 48 hr post-inoculation measured after 22 days relative to control; parameters: scale not given: the % may be the effect or the level left
Fulvia fulva [18] = assay: Antifungal activity against Passalora fulva infected tomato cultivar Alma F1 plants grown in growth chamber assessed as reduction in lesions on leaf at 5 ug a.i./ml sprayed 24 hr post-inoculation measured after 22 days relative to control; parameters: scale not given: the % may be the effect or the level left
Fulvia fulva [19] = assay: Antifungal activity against Passalora fulva infected tomato cultivar Alma F1 plants grown in growth chamber assessed as reduction in lesions on leaf at 20 ug a.i./ml sprayed 24 hr prior to inoculation measured after 22 days relative to control; parameters: scale not given: the % may be the effect or the level left
Fulvia fulva [20] = assay: Antifungal activity against Passalora fulva infected tomato cultivar Alma F1 plants grown in growth chamber assessed as reduction in lesions on leaf at 20 ug a.i./ml sprayed 48 hr prior to inoculation measured after 22 days relative to control; parameters: scale not given: the % may be the effect or the level left
Fulvia fulva [21] = assay: Antifungal activity against Passalora fulva infected tomato cultivar Alma F1 plants grown in growth chamber assessed as reduction in lesions on leaf at 20 ug a.i./ml sprayed 96 hr prior to inoculation measured after 22 days relative to control; parameters: scale not given: the % may be the effect or the level left
Fulvia fulva [22] = assay: Antifungal activity against Passalora fulva infected tomato cultivar Alma F1 plants grown in growth chamber assessed as reduction in lesions on leaf at 10 ug a.i./ml sprayed 24 hr prior to inoculation measured after 22 days relative to control; parameters: scale not given: the % may be the effect or the level left
Fulvia fulva [23] = assay: Antifungal activity against Passalora fulva infected tomato cultivar Alma F1 plants grown in growth chamber assessed as reduction in lesions on leaf at 10 ug a.i./ml sprayed 48 hr prior to inoculation measured after 22 days relative to control; parameters: scale not given: the % may be the effect or the level left
Fulvia fulva [24] = assay: Antifungal activity against Passalora fulva infected tomato cultivar Alma F1 plants grown in growth chamber assessed as reduction in lesions on leaf at 10 ug a.i./ml sprayed 96 hr prior to inoculation measured after 22 days relative to control; parameters: scale not given: the % may be the effect or the level left
Fulvia fulva [25] = assay: Antifungal activity against Passalora fulva infected tomato cultivar Alma F1 plants grown in growth chamber assessed as reduction in lesions on leaf at 5 ug a.i./ml sprayed 24 hr prior to inoculation measured after 22 days relative to control; parameters: scale not given: the % may be the effect or the level left
Fulvia fulva [26] = assay: Antifungal activity against Passalora fulva infected tomato cultivar Alma F1 plants grown in growth chamber assessed as reduction in lesions on leaf at 5 ug a.i./ml sprayed 48 hr prior to inoculation measured after 22 days relative to control; parameters: scale not given: the % may be the effect or the level left
Fulvia fulva [27] = assay: Antifungal activity against Passalora fulva infected tomato cultivar Alma F1 plants grown in growth chamber assessed as reduction in lesions on leaf at 5 ug a.i./ml sprayed 96 hr prior to inoculation measured after 22 days relative to control; parameters: scale not given: the % may be the effect or the level left
Fulvia fulva [28] = assay: Antifungal activity against Passalora fulva infected tomato cultivar Alma F1 plants grown in growth chamber assessed as reduction in lesions on leaf at 20 ug a.i./ml sprayed 96 hr post-inoculation measured after 22 days relative to control; parameters: scale not given: the % may be the effect or the level left

N#Cc1c(Cl)c(Cl)c(Cl)c(C#N)c1Cl [CHLOROTHALONIL]
Activity (Fulvia fulva [1]): 43.2% | Activity (Fulvia fulva [2]): 96.5% | Activity (Fulvia fulva [3]): 95.2% | Activity (Fulvia fulva [4]): 84.4% | Activity (Fulvia fulva [5]): 48.4% | Activity (Fulvia fulva [6]): 73.4% | Activity (Fulvia fulva [7]): 91%

CO/N=C(\C(=O)OC)c1ccccc1CO/N=C(\C)c1cccc(C(F)(F)F)c1
Activity (Fulvia fulva [8]): 94.5% | Activity (Fulvia fulva [9]): 93.3% | inhibition (INH) (Fulvia fulva [10]): 85.1% | inhibition (INH) (Fulvia fulva [11]): 55.7% | inhibition (INH) (Fulvia fulva [12]): 23.2% | Activity (Fulvia fulva [13]): 60.1% | Activity (Fulvia fulva [14]): 76.1% | Activity (Fulvia fulva [15]): 89% | Activity (Fulvia fulva [16]): 45.7% | Activity (Fulvia fulva [17]): 60.9% | Activity (Fulvia fulva [18]): 69.9% | Activity (Fulvia fulva [19]): 96.5% | Activity (Fulvia fulva [20]): 96.5% | Activity (Fulvia fulva [21]): 94% | Activity (Fulvia fulva [22]): 93.9% | Activity (Fulvia fulva [23]): 90.9% | Activity (Fulvia fulva [24]): 85.3% | Activity (Fulvia fulva [25]): 88.2% | Activity (Fulvia fulva [26]): 85.3% | Activity (Fulvia fulva [27]): 72.8% | Activity (Fulvia fulva [28]): 66.7%
